Data: ChEMBL document CHEMBL5465560, “Selectivity Literature for EUbOPEN Chemogenomic Library” (2024)

Key:
[1] = molecular target: T1, Mitogen-activated protein kinase kinase kinase 3 (Homo sapiens) (UniProt Q99759); experiment: Selectivity interaction (LanthaScreen Eu Kinase Binding Assay) EUB0001632a MAP3K3; details: at 10 µM
T1 sequence (whole entry): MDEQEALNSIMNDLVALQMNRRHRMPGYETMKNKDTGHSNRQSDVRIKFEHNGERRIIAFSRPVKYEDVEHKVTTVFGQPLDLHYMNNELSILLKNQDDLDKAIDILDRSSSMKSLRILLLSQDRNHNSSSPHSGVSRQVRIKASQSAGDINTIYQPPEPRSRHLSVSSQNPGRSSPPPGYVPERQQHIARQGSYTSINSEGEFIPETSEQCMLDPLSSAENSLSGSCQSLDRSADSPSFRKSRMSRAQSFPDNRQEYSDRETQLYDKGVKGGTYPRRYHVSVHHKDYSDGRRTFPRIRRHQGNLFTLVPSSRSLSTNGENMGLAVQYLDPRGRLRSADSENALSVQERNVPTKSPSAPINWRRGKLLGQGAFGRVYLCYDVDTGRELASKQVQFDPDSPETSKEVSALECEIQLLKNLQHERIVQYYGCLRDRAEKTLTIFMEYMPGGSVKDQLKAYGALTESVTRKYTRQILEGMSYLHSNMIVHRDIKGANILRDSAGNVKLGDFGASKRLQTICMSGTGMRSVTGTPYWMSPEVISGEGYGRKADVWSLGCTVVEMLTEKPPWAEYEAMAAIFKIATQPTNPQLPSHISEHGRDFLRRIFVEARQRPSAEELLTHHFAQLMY

[2] = molecular target: Ribosomal protein S6 kinase alpha-1 (Homo sapiens, UniProt Q15418); experiment: Selectivity interaction (KinomeScan (DiscoverX)) EUB0000666a RPS6KA1; details: at 10 µM
Ribosomal protein S6 kinase alpha-1, sequence (Q15418 whole entry): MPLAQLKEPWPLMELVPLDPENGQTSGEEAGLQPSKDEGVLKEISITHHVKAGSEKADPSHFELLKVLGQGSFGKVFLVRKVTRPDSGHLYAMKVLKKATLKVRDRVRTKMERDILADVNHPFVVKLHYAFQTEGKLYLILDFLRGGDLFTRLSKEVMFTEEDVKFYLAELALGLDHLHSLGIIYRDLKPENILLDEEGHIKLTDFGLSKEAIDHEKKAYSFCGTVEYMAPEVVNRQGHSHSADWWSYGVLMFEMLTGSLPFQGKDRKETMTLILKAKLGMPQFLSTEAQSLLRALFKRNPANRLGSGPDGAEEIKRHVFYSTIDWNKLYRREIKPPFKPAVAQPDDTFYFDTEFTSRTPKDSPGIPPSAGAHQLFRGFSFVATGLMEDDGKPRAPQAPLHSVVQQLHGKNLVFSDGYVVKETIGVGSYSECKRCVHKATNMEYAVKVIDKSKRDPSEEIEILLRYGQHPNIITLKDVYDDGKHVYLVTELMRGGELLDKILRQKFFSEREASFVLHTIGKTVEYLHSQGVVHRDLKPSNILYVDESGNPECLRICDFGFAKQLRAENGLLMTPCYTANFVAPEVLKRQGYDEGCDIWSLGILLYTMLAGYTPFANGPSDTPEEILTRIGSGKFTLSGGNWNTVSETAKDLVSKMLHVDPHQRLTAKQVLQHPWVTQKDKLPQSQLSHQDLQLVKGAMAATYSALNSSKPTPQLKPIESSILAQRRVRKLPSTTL

[3] = molecular target: Cyclin-dependent kinase 7 (Homo sapiens, UniProt P50613); experiment: Selectivity interaction (ActivX KiNativ screen (kinase selectivity in THP-1 cell lysates)) EUB0000639a CDK7; type: subcellular; details: lysate, at 0.01 µM
Cyclin-dependent kinase 7, sequence (P50613 whole entry): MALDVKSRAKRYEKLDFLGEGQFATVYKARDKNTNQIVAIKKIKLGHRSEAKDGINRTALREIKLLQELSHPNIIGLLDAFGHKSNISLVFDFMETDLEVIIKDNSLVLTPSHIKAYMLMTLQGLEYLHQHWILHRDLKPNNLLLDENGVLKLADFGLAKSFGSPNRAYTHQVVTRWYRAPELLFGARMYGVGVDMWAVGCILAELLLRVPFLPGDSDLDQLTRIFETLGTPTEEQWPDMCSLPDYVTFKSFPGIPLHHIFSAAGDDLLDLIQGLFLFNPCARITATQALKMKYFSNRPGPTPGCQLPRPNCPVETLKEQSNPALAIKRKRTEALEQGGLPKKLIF

[4] = molecular target: Serine/threonine-protein kinase Chk2 (Homo sapiens) (UniProt O96017); experiment: Selectivity interaction (Kinase panel (KiNativ target engagement assay in Jurkat cells)) EUB0001635a CHEK2; type: cell-based; details: at 1 µM
Serine/threonine-protein kinase Chk2 (Homo sapiens), sequence (O96017 whole entry): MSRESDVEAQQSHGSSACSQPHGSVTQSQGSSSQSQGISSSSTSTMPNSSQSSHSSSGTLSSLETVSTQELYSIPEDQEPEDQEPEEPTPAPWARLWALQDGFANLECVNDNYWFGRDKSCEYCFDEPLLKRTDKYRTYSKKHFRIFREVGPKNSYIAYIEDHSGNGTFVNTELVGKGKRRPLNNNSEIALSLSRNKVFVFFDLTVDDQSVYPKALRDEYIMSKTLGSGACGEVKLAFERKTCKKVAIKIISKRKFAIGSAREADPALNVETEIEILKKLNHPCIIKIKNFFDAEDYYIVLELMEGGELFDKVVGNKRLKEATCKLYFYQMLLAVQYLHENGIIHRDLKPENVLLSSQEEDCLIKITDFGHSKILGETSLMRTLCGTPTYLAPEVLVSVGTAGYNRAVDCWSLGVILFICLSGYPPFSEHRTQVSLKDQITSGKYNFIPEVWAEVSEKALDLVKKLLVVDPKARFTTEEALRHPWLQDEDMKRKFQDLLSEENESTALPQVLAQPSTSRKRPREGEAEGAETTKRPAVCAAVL

[5] = molecular target: T2, Myosin light chain kinase (Homo sapiens) (UniProt Q32MK0); experiment: Selectivity interaction (KinomeScan (DiscoverX)) EUB0000229b MYLK3; details: at 10 µM
T2 sequence (whole entry): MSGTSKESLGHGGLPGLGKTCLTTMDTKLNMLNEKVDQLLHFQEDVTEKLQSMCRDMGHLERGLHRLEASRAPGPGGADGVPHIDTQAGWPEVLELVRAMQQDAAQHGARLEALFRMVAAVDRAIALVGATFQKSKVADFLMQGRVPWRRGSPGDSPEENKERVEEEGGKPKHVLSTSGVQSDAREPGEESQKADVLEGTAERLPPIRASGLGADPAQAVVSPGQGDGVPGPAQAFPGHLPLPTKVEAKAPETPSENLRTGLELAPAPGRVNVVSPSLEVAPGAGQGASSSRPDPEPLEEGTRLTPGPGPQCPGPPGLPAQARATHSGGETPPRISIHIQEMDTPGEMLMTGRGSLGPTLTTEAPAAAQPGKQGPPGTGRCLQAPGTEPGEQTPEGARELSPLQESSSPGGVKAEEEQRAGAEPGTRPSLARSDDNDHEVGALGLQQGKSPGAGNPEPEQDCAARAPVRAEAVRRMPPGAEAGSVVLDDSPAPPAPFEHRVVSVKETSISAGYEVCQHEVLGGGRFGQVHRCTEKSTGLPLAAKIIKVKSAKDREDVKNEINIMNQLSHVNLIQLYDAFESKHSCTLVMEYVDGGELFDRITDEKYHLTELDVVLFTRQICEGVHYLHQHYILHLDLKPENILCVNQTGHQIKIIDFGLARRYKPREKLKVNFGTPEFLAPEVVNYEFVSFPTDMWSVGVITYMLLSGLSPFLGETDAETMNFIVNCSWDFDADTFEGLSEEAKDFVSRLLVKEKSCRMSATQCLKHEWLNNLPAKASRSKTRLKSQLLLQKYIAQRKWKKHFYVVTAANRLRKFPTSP

[6] = molecular target: T3, Serine/threonine-protein kinase PLK4 (Homo sapiens) (UniProt O00444); details: at 10 µM
T3 sequence (whole entry): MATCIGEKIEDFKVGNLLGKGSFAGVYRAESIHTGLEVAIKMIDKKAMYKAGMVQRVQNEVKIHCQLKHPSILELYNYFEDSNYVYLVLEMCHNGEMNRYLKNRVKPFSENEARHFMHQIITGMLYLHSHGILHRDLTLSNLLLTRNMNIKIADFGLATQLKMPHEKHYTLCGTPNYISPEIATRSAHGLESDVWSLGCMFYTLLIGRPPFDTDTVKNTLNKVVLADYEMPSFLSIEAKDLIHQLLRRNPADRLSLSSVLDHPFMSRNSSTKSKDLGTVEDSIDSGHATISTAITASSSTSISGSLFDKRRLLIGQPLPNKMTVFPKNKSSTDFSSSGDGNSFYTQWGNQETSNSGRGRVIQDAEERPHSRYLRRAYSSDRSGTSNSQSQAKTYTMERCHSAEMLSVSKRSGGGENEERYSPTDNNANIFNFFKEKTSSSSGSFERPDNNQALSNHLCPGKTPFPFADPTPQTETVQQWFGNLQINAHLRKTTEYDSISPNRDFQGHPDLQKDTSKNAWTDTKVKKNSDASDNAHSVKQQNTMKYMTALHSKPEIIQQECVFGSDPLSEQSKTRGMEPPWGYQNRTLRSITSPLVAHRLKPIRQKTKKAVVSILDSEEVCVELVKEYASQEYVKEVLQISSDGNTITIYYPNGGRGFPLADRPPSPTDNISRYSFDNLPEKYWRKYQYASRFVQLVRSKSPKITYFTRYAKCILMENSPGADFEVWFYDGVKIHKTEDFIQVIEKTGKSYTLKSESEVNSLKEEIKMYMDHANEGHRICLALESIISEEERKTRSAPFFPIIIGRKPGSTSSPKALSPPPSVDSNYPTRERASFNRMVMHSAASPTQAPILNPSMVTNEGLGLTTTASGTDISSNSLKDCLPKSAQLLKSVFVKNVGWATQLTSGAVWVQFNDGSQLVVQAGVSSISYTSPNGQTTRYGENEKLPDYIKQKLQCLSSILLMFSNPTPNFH

[7] = molecular target: Glycogen synthase kinase-3 beta (Homo sapiens, UniProt P49841); experiment: Selectivity interaction (ActivX KiNativ screen (ex vivo kinase selectivity in human PBMCs)) EUB0001619a GSK3B; type: cell-based; details: PBMC, at 1 µM
Glycogen synthase kinase-3 beta, sequence (P49841 whole entry, looked up): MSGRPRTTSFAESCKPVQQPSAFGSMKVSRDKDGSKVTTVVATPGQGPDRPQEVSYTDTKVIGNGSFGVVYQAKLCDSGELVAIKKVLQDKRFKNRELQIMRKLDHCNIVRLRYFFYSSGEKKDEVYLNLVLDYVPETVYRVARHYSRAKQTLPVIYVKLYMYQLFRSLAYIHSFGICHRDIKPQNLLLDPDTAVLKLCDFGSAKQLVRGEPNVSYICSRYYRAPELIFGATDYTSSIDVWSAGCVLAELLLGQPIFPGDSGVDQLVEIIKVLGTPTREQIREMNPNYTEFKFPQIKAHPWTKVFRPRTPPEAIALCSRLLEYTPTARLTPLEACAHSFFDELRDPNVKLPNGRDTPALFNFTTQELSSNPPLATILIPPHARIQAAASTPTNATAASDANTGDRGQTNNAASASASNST

[8] = molecular target: Tyrosine-protein kinase Fes/Fps (Homo sapiens) (UniProt P07332); experiment: Selectivity interaction (ActivX KiNativ screen (ex vivo kinase selectivity in human PBMCs)) EUB0001619a FES; type: cell-based; details: PBMC, at 1 µM
Tyrosine-protein kinase Fes/Fps (Homo sapiens), sequence (P07332 whole entry): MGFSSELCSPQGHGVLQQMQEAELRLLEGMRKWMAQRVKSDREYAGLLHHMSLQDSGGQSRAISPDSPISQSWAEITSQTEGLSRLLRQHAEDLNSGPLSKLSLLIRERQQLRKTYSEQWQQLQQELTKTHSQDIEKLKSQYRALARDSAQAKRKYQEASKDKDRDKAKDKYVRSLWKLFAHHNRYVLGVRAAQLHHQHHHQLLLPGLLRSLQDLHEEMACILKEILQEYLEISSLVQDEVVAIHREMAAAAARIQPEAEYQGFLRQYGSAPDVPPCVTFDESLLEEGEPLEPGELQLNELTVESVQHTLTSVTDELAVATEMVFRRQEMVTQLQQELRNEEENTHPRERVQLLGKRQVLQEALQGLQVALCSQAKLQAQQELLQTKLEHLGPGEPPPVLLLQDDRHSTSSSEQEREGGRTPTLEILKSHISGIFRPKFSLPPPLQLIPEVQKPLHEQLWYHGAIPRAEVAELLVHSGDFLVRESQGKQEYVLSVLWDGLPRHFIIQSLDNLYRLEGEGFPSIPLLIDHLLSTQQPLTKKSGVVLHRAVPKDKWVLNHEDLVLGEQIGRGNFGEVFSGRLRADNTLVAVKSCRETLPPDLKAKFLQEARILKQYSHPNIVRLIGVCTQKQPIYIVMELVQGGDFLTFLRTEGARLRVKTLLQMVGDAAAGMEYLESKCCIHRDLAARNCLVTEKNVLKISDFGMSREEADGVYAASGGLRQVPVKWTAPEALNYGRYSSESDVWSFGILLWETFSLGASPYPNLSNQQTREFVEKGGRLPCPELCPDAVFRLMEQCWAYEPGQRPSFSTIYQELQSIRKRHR

For `Cn1cc(-n2cnc3c(NCc4nc5cc(Cl)c(Cl)cc5[nH]4)nc(N4CCOCC4)nc32)cn1`, which % of inhibition [1] is on record?
The % of inhibition was -26.4%.

With `O=C(NOC[C@H](O)CO)c1ccc(F)c(F)c1Nc1ccc(I)cc1F` as the compound, how does the % of control [2] read?
The % of control was 100%.

How did the % of inhibition [3] turn out when `CC[C@@H]1[C@H](F)C(=O)N[C@@H]1COc1nccc2cc(C(N)=O)c(OC)cc12` [ZIMLOVISERTIB] was run?
The % of inhibition was -3%.

How did the % of engagement ([4]; Selectivity number of off-targets 0.0, Selectivity number of targets 233.0, Source Knowledge https://www.sciencedirect.com/science/article/pii/S2451945619300674?via%3Dihub) turn out when `C=CC(=O)Nc1ccc(C(=O)Nc2[nH]nc3c2CN(C(=O)N[C@H](CN(C)C)c2ccccc2)C3(C)C)cc1` was run?
The % of engagement was 5.2%.

What about the % of engagement [4] of the same compound?
The % of engagement was 4.4%.

Which % binding [5] does the source give for `COc1cc(N(C)c2ccnc3ccc(C(F)(F)F)cc23)cc(OC)c1OC` here?
The % binding was 100%.

For `Cc1cc([C@@H](C)Nc2ccccc2C(=O)O)c2nc(N3CCOCC3)cc(=O)n2c1` [AZD-6482], which % of control [6] is on record?
Its % of control is 100%.

What does the source list for `N#Cc1cccc(-c2c[nH]c3ncnc(N4CCOCC4)c23)c1`?
% of inhibition [7]: 7%; % of inhibition [8]: 2%
